From patent US20220088004A1, “COMPOSITION FOR COMPETITIVE INHIBITION OF OREXIN RECEPTORS” (SUNTORY HOLDINGS LIMITED, priority 2019, published 2022)

Experiments:
[1] = tested on: orexin receptor; conditions: injection; amyloid precursor protein transgenic mice; cited from earlier work
[2] = biological target: Orexin 2 Receptor (Homo sapiens, UniProt O43614); conditions: 100 μg/mL test substance, 1 h pre-incubation, then 50 nM orexin-A for 24 hours; HEK293T cells; n=3; FIG. 1
Experimental: The orexin receptor antagonist activity of a test substance was measured using an accessory to Orexin 2 Receptor Reporter Assay Kit (Cayman Chemical Company).
In this evaluation system, cells that express orexin receptors at cell surfaces are used. Binding of the agonist (orexin) to the orexin receptor causes secretion of secreted alkaline phosphatase (SEAP). Secreted SEAP is reacted with an alkaline phosphatase substrate, and the enzyme activity of SEAP is measured using a luminometer. A substance having orexin receptor antagonist action reduces the enzyme activity.
(1) HEK293T cells were prepared at a concentration of 2.5×10^5 cells/mL using Dulbecco's modified Eagle medium (high glucose content) (Dulbecco's Modified Eagle's Medium-high glucose, with 4500 mg/L glucose, L-glutamine, sodium pyruvate, and sodium bicarbonate, liquid, sterile-filtered, suitable for cell culture) (Sigma-Aldrich) to which fetal bovine serum (FBS) was added to a final concentration of 10%.
(2) The medium containing HEK293T cells prepared in (1) was seeded at 200 μL per well in Orexin 2 Receptor Reverse Transfection Strip Plate.
(3) Incubation was performed at 5% CO2 and 37° C. for 16 hours. […]
(7) The enzyme (SEAP) activity of the supernatant was measured in accordance with a protocol attached to Orexin 2 Receptor Reporter Assay Kit (Cayman Chemical Company). […]

[3] = tested on: HEK293T cells; test: WST-8 Cell Proliferation Assay (dehydrogenase activity, cell growth); assay type: cell-based; conditions: 100 μg/mL, HEK293T cells of Example 1; compared to positive and negative control; FIG. 2
Experimental: For the pyrroloquinoline quinone disodium salt-added group in Example 1, WST-8 Cell Proliferation Assay Kit (Cayman Chemical Company) was used to confirm the cell growth after addition of pyrroloquinoline quinone disodium salt. The measurement was performed by a method according to an attached protocol. The dehydrogenase activity is known to be in proportion to the number of live cells. The kit utilizes this principle and measures the dehydrogenase activity released in the medium from the cells.

[4] = tested on: orexin receptor; conditions: intake of suvorexant; cited from earlier work
[5] = tested on: orexin receptor; conditions: during glucose tolerance test; cited from earlier work

Chain of Orexin 2 Receptor (O43614 whole entry): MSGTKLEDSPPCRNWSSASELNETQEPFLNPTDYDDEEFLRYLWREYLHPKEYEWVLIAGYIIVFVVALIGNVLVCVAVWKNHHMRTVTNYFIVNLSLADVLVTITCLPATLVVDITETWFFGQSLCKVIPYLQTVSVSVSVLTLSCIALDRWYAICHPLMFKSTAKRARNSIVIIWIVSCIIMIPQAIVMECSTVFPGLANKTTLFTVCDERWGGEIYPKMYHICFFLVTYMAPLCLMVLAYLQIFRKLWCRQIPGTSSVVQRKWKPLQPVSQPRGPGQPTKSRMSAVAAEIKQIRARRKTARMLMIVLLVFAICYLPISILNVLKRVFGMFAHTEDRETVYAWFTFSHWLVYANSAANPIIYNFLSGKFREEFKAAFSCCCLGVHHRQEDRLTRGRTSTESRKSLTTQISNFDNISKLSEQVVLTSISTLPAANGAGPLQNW

For `CNC(=O)[C@@H](c1ccccc1)N1CCc2cc(OC)c(OC)cc2[C@@H]1CCc1ccc(C(F)(F)F)cc1` [almorexant], the “amyloid β level and amyloid plaque formation” value [1] is given as “decrease in amyloid β level and in amyloid plaque formation”.
With `O=C(O)c1cc(C(=O)O)c2c(n1)C(=O)C(=O)c1cc(C(=O)O)[nH]c1-2.[Na].[Na]` [pyrroloquinoline quinone disodium salt] the “orexin receptor antagonist action (SEAP enzyme activity relative to negative control)” value [2] was “orexin receptor antagonist action equivalent to that exerted by addition of 1 μM suvorexant” and the “number of cells (dehydrogenase activity relative to negative control)” value [3] was “did not show a decrease in the number of cells”.
In the case of `Cc1ccc(-n2nccn2)c(C(=O)N2CCN(c3nc4cc(Cl)ccc4o3)CC[C@H]2C)c1` [suvorexant], the “sleep latency, wake after sleep onset, total sleep duration, sleep efficiency” value [4] is given as “decreased sleep latency and objective wake after sleep onset and have increased total sleep duration and sleep efficiency” and the “rise in blood sugar levels” value [5] is given as “suppressing the rise in blood sugar levels”.
